Reference: ChEMBL document CHEMBL1143288, “(-)-Cercosporamide derivatives as novel antihyperglycemic agents” (Bioorg Med Chem Lett, 2009)
Calls of active or inactive are those of the source. The rule behind the calls is not given here.

Legend:
Mus musculus [1] = assay: Antihyperglycemic activity in hyperglycemic KK/Ta mouse assessed as change in plasma glucose level administered with diet in ratio of 0.1% for 1 week relative to control; type: functional
Mus musculus [2] = assay: Antihyperglycemic activity in hyperglycemic KK/Ta mouse assessed as effect on food intake administered with diet in ratio of 0.1% for 1 week measured on day 7 relative to control; type: ADME, organism-based; conditions: in vivo, po, 168 h
Mus musculus [3] = assay: Antihyperglycemic activity in hyperglycemic KK/Ta mouse assessed as effect on body weight administered with diet in ratio of 0.1% for 1 week measured on day 7 relative to control; type: ADME, organism-based; conditions: in vivo, po, 168 h
Mus musculus [4] = assay: Antihyperglycemic activity in hyperglycemic KK/Ta mouse assessed as body weight administered with diet in ratio of 0.01% for 1 week measured on day 7; type: ADME, organism-based; conditions: in vivo, po, 168 h
Mus musculus [5] = assay: Antihyperglycemic activity in hyperglycemic KK/Ta mouse assessed as food intake administered with diet in ratio of 0.03% for 1 week measured on day 7; type: ADME, organism-based; conditions: in vivo, po, 168 h
Mus musculus [6] = assay: Antihyperglycemic activity in hyperglycemic KK/Ta mouse assessed as food intake administered with diet in ratio of 0.01% for 1 week measured on day 7; type: ADME, organism-based; conditions: in vivo, po, 168 h
[7] = target: T1, Protein kinase C beta type (Homo sapiens, UniProt P05771); assay: Inhibition of human PKCbeta by scintillation proximity assay
Target sequence in this assay (P05771 whole entry): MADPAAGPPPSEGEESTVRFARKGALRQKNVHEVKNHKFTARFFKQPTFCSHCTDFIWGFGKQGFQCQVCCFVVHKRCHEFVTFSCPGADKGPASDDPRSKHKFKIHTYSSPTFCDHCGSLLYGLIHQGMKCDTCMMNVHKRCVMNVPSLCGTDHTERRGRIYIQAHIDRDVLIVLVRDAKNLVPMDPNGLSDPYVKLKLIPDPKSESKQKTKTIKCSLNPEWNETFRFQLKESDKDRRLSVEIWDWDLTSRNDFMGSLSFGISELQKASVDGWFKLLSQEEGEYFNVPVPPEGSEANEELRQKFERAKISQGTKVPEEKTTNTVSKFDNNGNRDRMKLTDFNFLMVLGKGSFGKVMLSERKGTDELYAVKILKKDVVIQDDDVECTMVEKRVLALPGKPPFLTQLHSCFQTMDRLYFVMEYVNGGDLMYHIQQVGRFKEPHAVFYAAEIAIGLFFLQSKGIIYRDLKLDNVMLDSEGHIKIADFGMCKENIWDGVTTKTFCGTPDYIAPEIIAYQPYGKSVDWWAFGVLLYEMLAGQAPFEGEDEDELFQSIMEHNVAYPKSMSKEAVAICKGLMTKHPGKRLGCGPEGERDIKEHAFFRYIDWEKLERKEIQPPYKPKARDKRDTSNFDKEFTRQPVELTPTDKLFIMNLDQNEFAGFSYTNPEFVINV

Mus musculus [8] = assay: Antihyperglycemic activity in hyperglycemic KK/Ta mouse assessed as plasma glucose level administered with diet in ratio of 0.003% for 1 week; type: functional
Mus musculus [9] = assay: Antihyperglycemic activity in hyperglycemic KK/Ta mouse assessed as food intake administered with diet in ratio of 0.003% for 1 week measured on day 7; type: ADME, organism-based; conditions: in vivo, po, 168 h
Mus musculus [10] = assay: Antihyperglycemic activity in hyperglycemic KK/Ta mouse assessed as body weight administered with diet in ratio of 0.1% for 1 week measured on day 7; type: ADME, organism-based; conditions: in vivo, po, 168 h
Mus musculus [11] = assay: Antihyperglycemic activity in hyperglycemic KK/Ta mouse assessed as food intake administered with diet in ratio of 0.1% for 1 week measured on day 7; type: ADME, organism-based; conditions: in vivo, po, 168 h
Protein kinase C-like 1 = target: T2, Protein kinase C-like 1 (Candida albicans, UniProt P43057); assay: Inhibition of Candida albicans Pkc1 expressed in insect Sf9 cells by scintillation proximity assay
T2 sequence (P43057 whole entry): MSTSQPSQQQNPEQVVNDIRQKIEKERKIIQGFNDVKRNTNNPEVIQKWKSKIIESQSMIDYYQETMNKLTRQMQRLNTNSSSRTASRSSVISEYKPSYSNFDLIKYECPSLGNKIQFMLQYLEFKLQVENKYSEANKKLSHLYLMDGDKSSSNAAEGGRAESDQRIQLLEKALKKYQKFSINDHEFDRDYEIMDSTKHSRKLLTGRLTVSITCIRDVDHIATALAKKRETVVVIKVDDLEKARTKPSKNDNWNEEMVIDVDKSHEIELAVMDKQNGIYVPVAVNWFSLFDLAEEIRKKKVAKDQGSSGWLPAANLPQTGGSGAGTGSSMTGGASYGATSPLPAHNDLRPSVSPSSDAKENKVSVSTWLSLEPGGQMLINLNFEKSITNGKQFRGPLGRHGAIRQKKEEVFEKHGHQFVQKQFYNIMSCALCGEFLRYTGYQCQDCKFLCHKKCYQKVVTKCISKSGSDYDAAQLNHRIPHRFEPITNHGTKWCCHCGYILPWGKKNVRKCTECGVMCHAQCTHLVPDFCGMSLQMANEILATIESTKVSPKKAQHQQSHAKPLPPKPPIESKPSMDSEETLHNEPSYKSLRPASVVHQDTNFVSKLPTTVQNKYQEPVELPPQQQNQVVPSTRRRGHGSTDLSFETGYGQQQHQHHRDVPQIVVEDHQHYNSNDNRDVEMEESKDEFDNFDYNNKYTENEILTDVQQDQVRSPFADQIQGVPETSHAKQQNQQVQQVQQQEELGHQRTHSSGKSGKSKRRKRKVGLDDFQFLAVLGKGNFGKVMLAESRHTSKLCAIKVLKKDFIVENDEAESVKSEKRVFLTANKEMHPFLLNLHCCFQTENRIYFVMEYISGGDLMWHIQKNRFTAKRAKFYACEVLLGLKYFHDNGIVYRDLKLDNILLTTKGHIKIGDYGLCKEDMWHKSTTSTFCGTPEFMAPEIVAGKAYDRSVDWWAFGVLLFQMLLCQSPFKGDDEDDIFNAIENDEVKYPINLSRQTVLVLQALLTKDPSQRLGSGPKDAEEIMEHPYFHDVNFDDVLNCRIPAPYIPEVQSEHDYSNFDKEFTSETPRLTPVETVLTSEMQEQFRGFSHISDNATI

Mus musculus [12] = assay: Antihyperglycemic activity in hyperglycemic KK/Ta mouse assessed as plasma glucose level administered with diet in ratio of 0.01% for 1 week; type: functional
[13] = target: T3, Protein kinase C alpha type (Homo sapiens, UniProt P17252); assay: Inhibition of human PKCalpha by scintillation proximity assay
[14] = target: Protein kinase C gamma type (Homo sapiens, UniProt P05129); assay: Inhibition of human PKCgamma by scintillation proximity assay
Mus musculus [15] = assay: Antihyperglycemic activity in hyperglycemic KK/Ta mouse assessed as body weight administered with diet in ratio of 0.003% for 1 week measured on day 7; type: ADME, organism-based; conditions: in vivo, po, 168 h
Mus musculus [16] = assay: Antihyperglycemic activity in hyperglycemic KK/Ta mouse assessed as body weight administered with diet in ratio of 0.03% for 1 week measured on day 7; type: ADME, organism-based; conditions: in vivo, po, 168 h
Mus musculus [17] = assay: Antihyperglycemic activity in hyperglycemic KK/Ta mouse assessed as plasma glucose level administered with diet in ratio of 0.03% for 1 week; type: functional
Mus musculus [18] = assay: Antihyperglycemic activity in hyperglycemic KK/Ta mouse assessed as plasma glucose level administered with diet in ratio of 0.1% for 1 week; type: functional
Mus musculus [19] = assay: Antihyperglycemic activity in hyperglycemic KK/Ta mouse assessed as effect on body weight administered with diet in ratio of 0.03% for 1 week measured on day 7 relative to control; type: ADME, organism-based; conditions: in vivo, po, 168 h
Mus musculus [20] = assay: Antihyperglycemic activity in hyperglycemic KK/Ta mouse assessed as effect on food intake administered with diet in ratio of 0.03% for 1 week measured on day 7 relative to control; type: ADME, organism-based; conditions: in vivo, po, 168 h
Mus musculus [21] = assay: Antihyperglycemic activity in hyperglycemic KK/Ta mouse assessed as change in plasma glucose level administered with diet in ratio of 0.03% administered for 1 week relative to control; type: functional
[22] = target: Protein kinase C delta type (Homo sapiens) (UniProt Q05655); assay: Inhibition of PKCdelta at 1 uM
[23] = target: T4, Protein kinase C zeta type (Homo sapiens) (UniProt Q05513); assay: Inhibition of PKCzeta at 1 uM
T4 sequence (whole entry): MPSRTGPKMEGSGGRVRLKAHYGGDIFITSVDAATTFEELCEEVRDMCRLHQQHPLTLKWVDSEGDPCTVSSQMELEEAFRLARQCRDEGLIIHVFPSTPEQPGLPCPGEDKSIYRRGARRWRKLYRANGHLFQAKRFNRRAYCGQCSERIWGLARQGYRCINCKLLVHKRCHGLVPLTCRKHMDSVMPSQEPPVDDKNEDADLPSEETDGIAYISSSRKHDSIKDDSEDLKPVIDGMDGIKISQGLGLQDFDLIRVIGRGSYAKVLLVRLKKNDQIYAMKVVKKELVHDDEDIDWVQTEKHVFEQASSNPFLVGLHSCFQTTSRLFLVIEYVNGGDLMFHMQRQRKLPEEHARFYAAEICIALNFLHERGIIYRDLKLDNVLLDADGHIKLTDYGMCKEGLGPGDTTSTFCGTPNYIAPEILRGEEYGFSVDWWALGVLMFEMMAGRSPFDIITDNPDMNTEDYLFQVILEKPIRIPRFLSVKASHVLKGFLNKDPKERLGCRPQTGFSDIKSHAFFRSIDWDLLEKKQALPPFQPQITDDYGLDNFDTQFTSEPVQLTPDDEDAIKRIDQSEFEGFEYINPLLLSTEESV

[24] = target: T3, Protein kinase C alpha type; assay: Inhibition of PKCalpha at 1 uM
[25] = target: T1, Protein kinase C beta type; assay: Inhibition of PKCbeta1 at 1 uM
Target sequence in this assay (P05771 2-671 limits assumed): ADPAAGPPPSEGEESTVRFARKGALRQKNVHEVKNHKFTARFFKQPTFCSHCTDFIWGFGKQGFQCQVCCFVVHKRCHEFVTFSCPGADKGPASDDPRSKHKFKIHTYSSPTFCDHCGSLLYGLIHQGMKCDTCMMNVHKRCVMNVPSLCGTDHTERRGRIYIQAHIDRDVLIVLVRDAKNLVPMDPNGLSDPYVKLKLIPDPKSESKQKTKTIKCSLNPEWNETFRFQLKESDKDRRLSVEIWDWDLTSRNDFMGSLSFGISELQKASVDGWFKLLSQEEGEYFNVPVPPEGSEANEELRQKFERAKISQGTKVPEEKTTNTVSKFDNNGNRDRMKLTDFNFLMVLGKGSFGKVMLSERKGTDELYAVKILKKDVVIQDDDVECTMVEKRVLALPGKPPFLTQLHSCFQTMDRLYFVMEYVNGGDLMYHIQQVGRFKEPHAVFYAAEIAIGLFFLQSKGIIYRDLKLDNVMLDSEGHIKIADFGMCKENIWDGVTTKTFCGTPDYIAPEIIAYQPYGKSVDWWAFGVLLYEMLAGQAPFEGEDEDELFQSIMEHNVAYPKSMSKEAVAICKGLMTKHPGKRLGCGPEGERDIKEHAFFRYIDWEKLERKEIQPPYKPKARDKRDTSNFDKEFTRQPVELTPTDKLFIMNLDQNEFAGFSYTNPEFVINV

[26] = target: Protein kinase C eta type (Homo sapiens) (UniProt P24723); assay: Inhibition of PKCeta at 1 uM
[27] = target: T1, Protein kinase C beta type; assay: Inhibition of PKCbeta2 at 1 uM
Target sequence in this assay (P05771 2-671 limits assumed): as above

[28] = target: T5, Protein kinase C epsilon type (Homo sapiens) (UniProt Q02156); assay: Inhibition of PKCepsilon at 1 uM
T5 sequence (whole entry): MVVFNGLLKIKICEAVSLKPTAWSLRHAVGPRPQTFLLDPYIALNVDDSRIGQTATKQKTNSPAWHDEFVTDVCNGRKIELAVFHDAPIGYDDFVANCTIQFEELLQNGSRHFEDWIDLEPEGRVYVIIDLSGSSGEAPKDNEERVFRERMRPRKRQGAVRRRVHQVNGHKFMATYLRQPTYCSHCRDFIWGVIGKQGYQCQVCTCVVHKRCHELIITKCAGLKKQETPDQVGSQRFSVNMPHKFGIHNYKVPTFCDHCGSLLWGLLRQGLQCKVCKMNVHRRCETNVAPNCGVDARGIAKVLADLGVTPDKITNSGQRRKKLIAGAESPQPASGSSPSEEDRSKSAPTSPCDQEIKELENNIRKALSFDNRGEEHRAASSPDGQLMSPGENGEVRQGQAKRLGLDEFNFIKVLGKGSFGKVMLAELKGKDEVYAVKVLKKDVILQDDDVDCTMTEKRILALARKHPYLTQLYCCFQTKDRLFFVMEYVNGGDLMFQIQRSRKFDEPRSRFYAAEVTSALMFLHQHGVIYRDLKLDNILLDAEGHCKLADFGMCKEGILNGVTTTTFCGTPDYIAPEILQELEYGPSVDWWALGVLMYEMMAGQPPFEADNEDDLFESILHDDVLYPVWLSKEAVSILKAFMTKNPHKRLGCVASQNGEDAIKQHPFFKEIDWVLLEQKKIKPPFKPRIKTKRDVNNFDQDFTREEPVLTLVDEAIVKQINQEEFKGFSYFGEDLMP

Protein kinase C delta type (Homo sapiens), sequence (Q05655 whole entry, looked up): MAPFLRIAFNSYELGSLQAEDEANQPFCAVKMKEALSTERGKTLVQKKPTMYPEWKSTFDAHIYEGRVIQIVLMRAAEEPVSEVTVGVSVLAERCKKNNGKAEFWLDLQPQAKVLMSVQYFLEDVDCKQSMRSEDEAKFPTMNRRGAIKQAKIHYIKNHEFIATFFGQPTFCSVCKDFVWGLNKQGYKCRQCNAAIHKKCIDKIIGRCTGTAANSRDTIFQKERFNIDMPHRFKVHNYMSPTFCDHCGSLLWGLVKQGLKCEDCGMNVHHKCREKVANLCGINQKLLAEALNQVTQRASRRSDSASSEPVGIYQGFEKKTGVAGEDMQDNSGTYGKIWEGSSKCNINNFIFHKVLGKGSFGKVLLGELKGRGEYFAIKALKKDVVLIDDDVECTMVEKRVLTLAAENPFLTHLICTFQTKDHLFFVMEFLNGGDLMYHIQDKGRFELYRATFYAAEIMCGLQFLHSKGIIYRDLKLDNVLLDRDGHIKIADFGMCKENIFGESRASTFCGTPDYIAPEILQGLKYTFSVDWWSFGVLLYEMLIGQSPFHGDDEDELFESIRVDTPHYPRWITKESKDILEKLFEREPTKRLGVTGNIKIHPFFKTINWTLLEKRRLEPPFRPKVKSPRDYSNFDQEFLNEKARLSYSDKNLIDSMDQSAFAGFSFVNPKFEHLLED
Protein kinase C eta type (Homo sapiens), sequence (P24723 whole entry): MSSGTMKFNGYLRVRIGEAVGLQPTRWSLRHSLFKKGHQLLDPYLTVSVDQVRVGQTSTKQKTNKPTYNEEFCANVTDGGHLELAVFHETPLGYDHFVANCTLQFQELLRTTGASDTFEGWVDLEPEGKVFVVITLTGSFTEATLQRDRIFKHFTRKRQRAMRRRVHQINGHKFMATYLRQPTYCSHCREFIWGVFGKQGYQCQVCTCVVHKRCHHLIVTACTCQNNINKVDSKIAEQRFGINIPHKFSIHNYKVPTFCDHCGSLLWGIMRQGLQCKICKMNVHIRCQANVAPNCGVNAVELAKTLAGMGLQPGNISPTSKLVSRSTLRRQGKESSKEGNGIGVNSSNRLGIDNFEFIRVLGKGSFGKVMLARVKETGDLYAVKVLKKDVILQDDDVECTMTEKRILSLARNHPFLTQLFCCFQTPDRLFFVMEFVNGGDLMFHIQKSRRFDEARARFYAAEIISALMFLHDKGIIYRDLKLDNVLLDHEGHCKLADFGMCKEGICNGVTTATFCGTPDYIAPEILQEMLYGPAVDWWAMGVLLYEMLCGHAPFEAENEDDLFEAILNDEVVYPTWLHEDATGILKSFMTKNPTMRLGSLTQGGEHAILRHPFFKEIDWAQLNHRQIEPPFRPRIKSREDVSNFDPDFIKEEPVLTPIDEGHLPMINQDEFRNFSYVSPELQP

Row | Structure (SMILES) | Activity (Mus musculus [1]) | Activity (Mus musculus [2]) | Activity (Mus musculus [3]) | Activity (Mus musculus [19]) | Activity (Mus musculus [20]) | Activity (Mus musculus [21]) | other results
1 | COc1cc(OC)c2c(c1C(N)=O)OC1=CC(O)=C(C(C)=O)C(=O)[C@]12C | 26% | 92% | 100% | – | – | – | –
2 | CC1=NOC2C=C3Oc4c(C(N)=O)c(O)cc(O)c4[C@]3(C)C(=O)C12 (stereo partly specified) | 1% | 126% | 102% | – | – | – | –
3 | CC(=O)C1=C(O)C=C2Oc3c(C(N)=O)c(O)cc(O)c3[C@]2(C)C1=O | 71% | 34% | 83% | – | – | – | Activity (Mus musculus [4]): 47 g; Activity (Mus musculus [5]): 3.65 g/day; Activity (Mus musculus [6]): 4.81 g/day; IC50 [7]: 350 nM; Activity (Mus musculus [8]): 571 mg/dL; Activity (Mus musculus [9]): 5.78 g/day; Activity (Mus musculus [10]): 39.1 g; Activity (Mus musculus [11]): 1.89 g/day; IC50 (Protein kinase C-like 1): 44 nM; Activity (Mus musculus [12]): 408 mg/dL; IC50 [13]: 1020 nM; IC50 [14]: 5800 nM; Activity (Mus musculus [15]): 48.4 g; Activity (Mus musculus [16]): 45.9 g; Activity (Mus musculus [17]): 272 mg/dL; Activity (Mus musculus [18]): 176 mg/dL
4 | CC(=O)C1=C(O)C=C2Oc3c4c(cc(O)c3[C@]2(C)C1=O)OC(C)(c1ccccc1)NC4=O (stereo partly specified) | – | – | – | 100% | 94% | 54% | –
5 | COc1cc(OC)c2c(c1C(=O)N(C)C)OC1=CC(O)=C(C(C)=O)C(=O)[C@]12C | 14% | 95% | 96% | – | – | – | –
6 | CC(=O)C1=C(O)C=C2Oc3c4c(cc(O)c3[C@]2(C)C1=O)OC1(CCCC1)NC4=O | – | – | – | 102% | 106% | 7% | –
7 | CC(=O)C1=C(O)C=C2Oc3c4c(cc(O)c3[C@]2(C)C1=O)OC(C)(C)NC4=O | 56% | 78% | 102% | 102% | 92% | 35% | Activity [22]: inactive; Activity [23]: inactive; Activity [24]: inactive; Activity [25]: inactive; Activity [26]: inactive; Activity [27]: inactive; Activity [28]: inactive
8 | COc1cc(O)c2c(c1C(N)=O)OC1=CC(O)=C(C(C)=O)C(=O)[C@]12C | 70% | 37% | 83% | – | – | – | –
9 | CC(=O)C1=C(O)CC2Oc3c(C(N)=O)c(O)cc(O)c3[C@]2(C)C1=O (stereo partly specified) | 29% | 111% | 101% | – | – | – | –
10 | CC(=O)C1=C(O)C=C2Oc3c4c(cc(O)c3[C@]2(C)C1=O)OC1(CCCCC1)NC4=O | – | – | – | 104% | 104% | 38% | –
